This is an account of results in patent publication US10093651B2, “Ghrelin O-acyl transferase inhibitors” (Eli Lilly and Company, priority 2015, dated 2018).

The target in one assay is GOAT (Mus musculus (Mouse), UniProt P0C7A3). Nature of the assay: In vivo dose dependent 3 day BID study for GOAT inhibitor (plasma AG and UAG by ELISA). As to conditions: mice, 3 days; for reduction in AG to total ghrelin ratio: compared to vehicle-treated control animals; for decrease of plasma AG / increase of UAG: vs vehicle; for AG (% of control) / AG/Total-ghrelin (% of vehicle control) / UAG (% of vehicle control) / increase of UAG: plasma. Also noted: species or system male C57BL/6 mice. As to the method: Comparing the change in the ratio of AG to total ghrelin in the compound treated group and that of the vehicle treated group reflects the degree of GOAT enzyme inhibition in vivo, due to the dynamic processing of UAG to AG by the GOAT enzyme. In the in vivo pharmacodynamic studies herein, the levels of AG and UAG in plasma and stomach in the vehicle and compound treated groups are measured by ELISA specifically to these two analytes. The total ghrelin level of each sample is computed as the sum of AG and UAG by these ELISA measurements. The ratio of AG to total ghrelin is defined by the level of AG in each sample divided by the level of total ghrelin in the same sample. The levels of AG, UAG and ratio of AG to total ghrelin in the vehicle treated group is computed and set as 100%. The relative change of these parameters in the compound treated group is then computed to determine the effectiveness of the test compound.
Chain of GOAT (P0C7A3 whole entry): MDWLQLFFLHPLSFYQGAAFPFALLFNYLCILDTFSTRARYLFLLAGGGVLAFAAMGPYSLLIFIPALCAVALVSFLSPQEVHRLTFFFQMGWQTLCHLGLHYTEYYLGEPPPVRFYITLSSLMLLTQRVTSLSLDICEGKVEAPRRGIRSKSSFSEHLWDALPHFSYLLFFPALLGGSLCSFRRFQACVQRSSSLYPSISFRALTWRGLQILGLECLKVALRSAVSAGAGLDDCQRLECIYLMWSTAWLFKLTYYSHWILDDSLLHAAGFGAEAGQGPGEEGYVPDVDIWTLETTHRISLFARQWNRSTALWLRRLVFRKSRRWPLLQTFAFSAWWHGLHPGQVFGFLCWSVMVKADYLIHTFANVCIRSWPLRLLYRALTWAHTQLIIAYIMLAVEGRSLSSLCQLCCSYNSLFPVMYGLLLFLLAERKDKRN
In Vivo Dose Dependent 3 Day BID Study for GOAT Inhibitor:E
Purchase male C57BL/6 mice from Harlaan (Indianapolis, Ind.) at 9 weeks of age. House the mice individually in a temperature-controlled (24° C.) facility with a 12 hours light/dark cycle (lights on 2200 h), and allow free access to a standard rodent chow (diet 2014, Harlan) and water. Typically, use the mice when they are 10-13 weeks of age at the time of the study. On day 0 of the experiment, randomize the mice into treatment groups (N=7/group) so each group has similar mean body weights. On day 1 and day 2, treat the animals with vehicle (1% hydroxyethylcellulose, 0.25% TWEEN™ 80, 0.05% antifoam) or test compound prepared in the vehicle as suspension at various dosages by oral gavage at 7 am and 7 pm. On day 3, fast the animals, move them into clean cages and dose with vehicle or the test compound again at 8 am by oral gavage. That same day at 1 pm, sacrifice the animals by decapitation to collect blood. For details of blood collection and plasma treatments see Blood collection and Extraction of Ghrelin from Plasma section below.
Collect approximately 600 μL blood into a pre-weighed EDTA tube containing 600 μL (defined as Vpreservative) freshly-prepared preservative (4 mM PEFABLOC® [4-(2-aminoethyl) benzenesulfonyl fluoride hydrochloride], 72 mM NaCl, 58 mM NaF, 0.032 N hydrochloric acid, pH 3.0) and mix immediately. Weigh the tube again and keep on ice. To accurately determine the exact blood volume of each sample using this blood collection procedure, the weight of the blood for each mouse is computed using the following equation: Weight of Blood=(Weight of the tube containing Blood+preservative)−(Weight of the tube containing preservative) Blood volume (Vblood)=(Weight of blood)/1.06
Note, the density of rodent blood is assumed as 1.06 g/mL.
Within 15 minutes after the blood collection, samples are centrifuged at 5000 rpm at 4° C. for 8 min. Remove plasma (650 μL) to a 5 mL glass tube containing 1 N hydrochloric acid (65 μL), mix and keep on ice.
Ghrelin Extraction by SEP-PAK® Column:
AG and UAG are extracted from plasma using SEP-PAK®_C18 column to remove interference prior to performing the ELISA. The solid phase extraction of AG and UAG peptides by SEP-PAK®_C18 columns can be performed on a vacuum manifold (Waters Corp) or using a peristaltic pump. The sample SEP-PAK®_column extraction procedure is independently applied to the plasma sample obtained from each individual mouse. The general extraction protocol is described as follows.
All solutions used for the entire protocol of the SEP-PAK® column extraction should be at ice cold condition. Wet SEP-PAK®_columns (WAT054960, Waters Corp, Milford Mass.) with 99.9% ACN/0.1% TFA (1 mL of solution of 100 mL ACN/0.1 mL TFA). […] Once liquid is removed from the column, stop the pressure. Equilibrate the columns with 3% ACN/0.1% TFA (I mL of 97 mL water, 3 mL ACN, 0.1 mL TFA). […] Dilute approximately 650 μL acidified plasma (defined as Vplasma added to column) to 1.4 mL ice cold 0.1% TFA. […]

Another assay concerns the target human GOAT (Homo sapiens (Human), UniProt Q96T53). Nature of the assay: In vitro cell free human GOAT enzymatic assay. Particulars: purified GOAT enzyme, ELISA readout of acyl-ghrelin. The assay is classed as biochemical. As to the method: In Vitro Cell Free Human GOAT Enzymatic Assay
Human GOAT gene (Accession number: NM 001100916) is subcloned to pAN51 baculoviral expression vector. Baculovirus stock is prepared following the Bac-to-Bac Protocol provided by the vendor, Invitrogen, California, USA. Five mililiters of human GOAT baculoviral stock are added to 500 mL SDf cells in HyQ SFX-Insect™ media (HyClone catalog number SF130278.02) at the density of 1×10^6 cells per milliliter in a 2 L Erlenmeyer flask. The flask with human GOAT gene infected Sf9 cells is put on a plate shaker at 120 rpm at 28° C. for 48 hours. After 48 hours incubation, cells are centrifuged at 1,000×g for 10 min at 4° C. The cell pellets are collected and stored at −80° C. in a freezer until ready for further processing.
Preparation of Microsomal Membrane of GOAT Enzyme for the Enzymatic Assay:
One gram cell pellets are suspended in 9 mL chilled homogenization buffer (50 mM Tris-HCl, 250 mM sucrose, adjusted to pH 7.5 and sterile filtered through 0.2 μm Millipore filter). The cell suspension is transferred to a Dounce glass homogenizer. Cell pellets are homogenized with 40 strokes on ice. The homogenate is centrifuged at 3,000 rpm in a Beckman swing bucket rotor at 4° C. for 10 min to remove unbroken cells. The supernatant is collected and centrifuged at 40,000×g for 1 hour at 4° C. The resulting membrane pellet is suspended in the homogenization buffer using a Dounce glass homogenizer and stored at −20° C. in the freezer for the assay. For long term storage of the human GOAT enzyme membrane preparation, the suspended membrane is stored in a −80° C. freezer.
Human GOAT Enzymatic Assay Protocol:
Prepare test compounds in DMSO to make up a 0.2 mM stock solution. Serially dilute the stock solution in DMSO to obtain a ten-point dilution curve with final compound concentrations ranging from 10 μM to 0.5 nM in a 96-well round-bottom plate. Prepare enzyme and substrate solutions in assay buffer (0.02% TWEEN™-20 in 50 mM Tris, pH 7.5/250 mM sucrose/1 mg/mL BSA/10 mM EDTA). Add diluted compound (1 μL) to each well of row A to N of a corresponding low protein binding 384 well plate. Add human GOAT substrate mix (10 μL), consisting of human desacyl-ghrelin-biotin (CPC Scientific Inc., 6.0 μM final), octanoyl-coenzyme A (CoA) (Sigma, 60 μM final) and an AG specific antibody (WO 2006/091381)([…] final), to the compounds. Add GOAT-His/sf9 enzyme preparation, that has been prepared in assay buffer (9 μL), to each well of the plate containing substrate and test compounds resulting in a final concentration of 0.01 μg/mL to initiate the reaction. Incubate the mixture for 1 hour at RT on a gently rotating oscillator. Add 4M guanidine hydrochloride (20 μL) to all wells, mix, and incubate for 3 hours to stop the reaction.
Prepare ELISA plates (STREPTAVIDIN SPECTRAPLATE™ 384, Perkin Elmer) by blocking with 2% Heat-Inactivated FBS in PBS (40 μL) (Invitrogen) blocking buffer for 3 hours. Aspirate the blocking buffer from ELISA plate and add blocking buffer (23 μL) to columns 1-24, rows A-N. Reserve rows O and P for the acylghrelin standard curve. Add the reaction mix (2 μL) to the ELISA plates. Prepare a 10 point standard curve (biotin-labeled octanoyl-ghrelin) by serial 2× dilution in blocking buffer containing 0.2M Guanidine hydrochloride starting at 2.5 pM. Incubate the reaction mixture or biotin-labeled AG standard in the ELISA plate overnight at 4° C. […]
Background: In an ELISA, binding on a coated surface is turned into a signal by an enzyme label.

Chain of human GOAT (Q96T53 whole entry): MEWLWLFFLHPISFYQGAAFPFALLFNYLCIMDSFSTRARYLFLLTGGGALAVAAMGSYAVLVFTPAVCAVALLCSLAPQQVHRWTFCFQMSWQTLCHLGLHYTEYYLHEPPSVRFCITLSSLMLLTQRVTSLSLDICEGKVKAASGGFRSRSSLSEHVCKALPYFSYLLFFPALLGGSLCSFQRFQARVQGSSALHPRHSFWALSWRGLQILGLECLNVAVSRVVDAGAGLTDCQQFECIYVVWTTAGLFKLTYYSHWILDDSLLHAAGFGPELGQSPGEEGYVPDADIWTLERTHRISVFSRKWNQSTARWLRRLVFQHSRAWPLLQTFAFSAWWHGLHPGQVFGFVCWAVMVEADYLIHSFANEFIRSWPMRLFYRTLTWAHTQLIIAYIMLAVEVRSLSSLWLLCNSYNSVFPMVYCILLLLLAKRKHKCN

One may read the IC50 as the concentration that gives 50% inhibition. In the case of `Cc1nc(C(F)(F)F)nc(N)c1CCC1CCN(C(=O)[C@H](C)NC(=O)c2ccnn2C)CC1` [Example 2, N-[(1 S)-2-[4-[2-[4-Amino-6-methyl-2-(trifluoromethyl)pyrimidin-5-yl]ethyl]-1-piperidyl]-1-methyl-2-oxo-ethyl]-2-methyl-pyrazole-3-carboxamide], the “reduction in AG to total ghrelin ratio” value on GOAT (0.1 mg/kg) is listed as 57%; at GOAT (0.3 mg/kg), 62%; at GOAT (1 mg/kg), 79%; on GOAT (3 mg/kg), 82%; at GOAT (10 mg/kg), 82%. Further, the “decrease of plasma AG” value was found to be 40% on GOAT (0.1 mg/kg); 60% at GOAT (0.3 mg/kg); 56% at GOAT (1 mg/kg); 63% at GOAT (3 mg/kg); 63% on GOAT (10 mg/kg). For the same compound, the “AG (% of control)” value is 60 ± 8 (n = 7) % of control at GOAT (0.1 mg/kg oral gavage BID); 40 ± 10 (n = 7) % of control on GOAT (0.3 mg/kg oral gavage BID); 44 ± 6 (n = 14) % of control at GOAT (1 mg/kg oral gavage BID); 37 ± 9.6 (n = 14) % of control on GOAT (3 mg/kg oral gavage BID); 37 ± 9.9 (n = 7) % of control at GOAT (10 mg/kg oral gavage BID). Besides, the “AG/Total-ghrelin (% of vehicle control)” value is recorded as 43 ± 3 (n = 7) % of vehicle control on GOAT (0.1 mg/kg oral gavage BID); 28 ± 1 (n = 7) % of vehicle control on GOAT (0.3 mg/kg oral gavage BID); 21 ± 1 (n = 14) % of vehicle control on GOAT (1 mg/kg oral gavage BID); 18 ± 5 (n = 14) % of vehicle control on GOAT (3 mg/kg oral gavage BID); 18 ± 3 (n = 7) % of vehicle control at GOAT (10 mg/kg oral gavage BID). Further, the “UAG (% of vehicle control)” value at GOAT (0.1 mg/kg oral gavage BID) is on record as 210 ± 43 (n = 7) % of vehicle control; at GOAT (0.3 mg/kg oral gavage BID) it was 222 ± 54 (n = 7) % of vehicle control; at GOAT (1 mg/kg oral gavage BID), 357 ± 30 (n = 14) % of vehicle control; on GOAT (3 mg/kg oral gavage BID), 349 ± 41 (n = 14) % of vehicle control; at GOAT (10 mg/kg oral gavage BID) it was 378 ± 59 (n = 7) % of vehicle control. In addition, the “increase of UAG” value at GOAT (0.1 mg/kg) is 2.10 fold; on GOAT (0.3 mg/kg) it was 2.22 fold; on GOAT (1 mg/kg), 3.57 fold; at GOAT (3 mg/kg), 3.49 fold; at GOAT (10 mg/kg), 3.78 fold. On human GOAT, the IC50 worked out at 69.5 ± 0.6 nM.
On human GOAT, `Cc1nc(C(F)(F)F)nc(N)c1CCC1CCN(C(=O)[C@H](C)NC(=O)c2nccnc2Cl)CC1` [Example 15, N-[(1S)-2-[4-[2-[4-Amino-6-methyl-2-(trifluoromethyl)pyrimidin-5-yl]ethyl]-1-piperidyl]-1-methyl-2-oxo-ethyl]-3-chloro-pyrazine-2-carboxamide] gave an IC50 of 55.7 nM. In other words, the double-digit nanomolar range.
On the same count and under the same terms, then `COc1ccccc1C(=O)N[C@@H](C)C(=O)N1CCC(CCc2c(C)nc(C(F)(F)F)nc2N)CC1` [Example 17, N-[(1S)-2-[4-[2-[4-Amino-6-methyl-2-(trifluoromethyl)pyrimidin-5-yl]ethyl]-1-piperidyl]-1-methyl-2-oxo-ethyl]-2-methoxy-benzamide], with 420 nM; and `Cc1nc(C(F)(F)F)nc(N)c1CCC1CCN(C(=O)[C@H](C)NC(=O)CO)CC1` [Example 18, N-[(1S)-2-[4-[2-[4-Amino-6-methyl-2-(trifluoromethyl)pyrimidin-5-yl]ethyl]-1-piperidyl]-1-methyl-2-oxo-ethyl]-2-hydroxy-acetamide], with 276 nM.
Same read-out and setting: in the case of `COC(=O)N[C@@H](C)C(=O)N1CCC(CCc2c(C)nc(C(F)(F)F)nc2N)CC1` [Example 20, Methyl-[(1S)-2-[4-[2-[4-amino-6-methyl-2-(trifluoromethyl)pyrimidin-5-yl]ethyl]-1-piperidyl]-1-methyl-2-oxo-ethyl]carbamate] it was 615 nM.
